{"source": "patent EP3434255A1", "about": "“IONTOPHORESIS METHOD, COMPOSITION AND KIT FOR DELIVERING N-ACETYL-3-TRIFLUOROMETHYL-PHENYL-(VALINE-GLYCINE) THROUGH THE SKIN” (priority 2017, dated 2019)", "key": {"pKa of the active agent": {"test": "pKa of the active agent", "type": "physicochemical"}, "[1]": {"system": "Dermatomed porcine ear skin", "type": "in vitro ADME", "details": "1 % w/v in HEPES buffer (pH 7.15) containing 25 mM sodium chloride", "description": "Untreated porcine ears were procured from a local slaughter house. Dorsal side of the porcine ears was used for the study.. For study #4, dermatomed porcine skin was prepared by dermatoming full thickness skin using Dermatome 75 mm (Nouvag AG TCM 3000, Goldach, Switzerland).\nDermatome is a surgical instrument used to produce thin slices of skin. Dermatoming is refering to the procedure to produce thin layers of the skin by using such device.\nIn vitro permeation study was performed using Franz diffusion cells (PermeGear V6 station vertical cell). These models contain 6 diffusion cells in each console with 5 ml receptor volume and 9 mm orifice. The diffusion area was 0.64 cm^2.\nAfter washing the cells, receptor solution was left overnight and replaced with fresh sodium chloride solution (0.9 % w/v), 30 minutes prior to mounting the skin. The receptor chamber temperature was maintained at 37°C by the built-in water circulation jacket so as to attain the skin temperature of 32°C.\nSkin pieces were then mounted between the donor and receptor compartment (containing 0.9 % (w/v) sodium chloride solution) of Franz diffusion cells with the stratum corneum facing towards the donor side.\nThe formulation (160 mg formulation containing 1.6 mg active/0.64 sq.cm) was applied in the donor chamber using a positive displacement pipette (Rainin PosD). Simplex formulation was applied in the donor chamber. The donor compartment was left open to mimic in vivo conditions. Six replicates (with the exception of preliminary study 4) were performed for each formulation for each test group (iontophoresis and corresponding passive control - \"no current\" group) as specified in Table 1 as follows. In the Table 1, the \"active agent\" is N-acetyl-3-trifluoromethyl-phenyl-(valine-glycine).\nCurrent (0.2 mA/sq.) was applied using silver/silver chloride electrode system and a constant current source (Keithley®; Keithley Instruments, Cleveland, OH, USA). […] Current application was monitored with a chronometer. […]\nReceptor samples were taken after stopping the current for the defined duration, which was 20 min in all the studies except study #4, in which sampling was performed at 5, 10, 20, 60, 120, and 240 min. […] The receptor samples were filtered and quantified with methanol calibration using LCMS.\nAll samples were analyzed by a validated LCMS method which was performed on an Agilent 6410 Triple Quad System to determine how much of the cosmetic agent passed into and through the skin.\nResults of the studies were plotted as average amount of active permeated in receptor, quantity of the active in tape strips, and underlying skin for each test group (passive or iontophoresis treatment group). […]"}}}
{"smiles": "CC(=O)N(c1cccc(C(F)(F)F)c1)C(C(=O)NCC(=O)O)C(C)C", "note": "(centres unmarked) [active agent, N-acetyl-3-trifluoromethyl-phenyl-(valine-glycine)]", "values": [{"measurement": "pKa", "setting": "pKa of the active agent", "result": 3.3}, {"measurement": "average cumulative amount of active delivered after 20 min", "setting": "[1]; anodal iontophoresis 0.2 mA/sq.cm compared with passive and cathodal iontophoresis, p<0.05", "result": "significantly higher"}, {"measurement": "permeation of the active agent through dermatomed porcine skin over 4 h study duration", "setting": "[1]; anodal iontophoresis 0.2 mA/sq.cm for 2 h compared with passive and cathodal iontophoresis, p<0.05", "result": "significantly enhance"}, {"measurement": "cumulative active permeation after 20 min", "setting": "[1]; cathodal iontophoresis 0.2 mA/sq.cm compared with passive, p>0.05", "result": "no significant difference"}, {"measurement": "cumulative active permeation after 4 h", "setting": "[1]; cathodal iontophoresis 0.2 mA/sq.cm for 2 h compared with passive, p>0.05", "result": "no significant difference"}]}
